Measured values taken from paper PMC4604124, “In Vitro Characterization of the Pharmacological Properties of the Anti-Cancer Chelator, Bp4eT, and Its Phase I Metabolites” (PLoS ONE, 2015).
Where “and” joins values, the source holds several entries; their conditions need not be identical. Equal entries are not always repeated. Where two headings read alike, the source gives them in different places.

Assays:
[1] = tested on: HL-60 human promyelocytic leukemia cells; test: MTT cytotoxicity assay, HL-60 cells; format: cell-based; conditions: for IC50: MTT, read-out: IC50
Method in brief: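 Cytotoxicity toward HL-60 leukemia cells was measured by MTT after a 72 h/37°C incubation with compounds, following 24 h pre-culture at 10,000 cells/well in 96-well plates. All media contained 0.1% DMSO. Optical density at 570 nm, corrected at 690 nm, gave viability relative to untreated controls (100%). IC50 values came from CalcuSyn 2.0, and data are mean ± SD.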

[2] = tested on: MCF-7 cells; test: Cell cycle analysis by flow cytometry (propidium iodide); format: cell-based, human; conditions: 0.1 μM, 72 h, control 33%
Method: To examine the effect of the agents on the cell cycle, MCF-7 cells were seeded in 60 mm Petri dishes at a density of 240,000 cells/dish and incubated with Bp4eT or its metabolites for 72 h/37°C. The cells were then harvested, fixed by ethanol and stained by propidium iodide (Molecular Probes, Eugene, OR, USA) for 30 min/37°C, as described previously. Cells were analyzed using Accuri C6 flow cytometer (Becton Dickinson and Company, San Jose, CA USA). Propidium iodide was excited at λex = 488 nm and fluorescence analyzed at λem = 585 nm (FL-2) with a total of 10,000 events collected per analysis.
SigmaStat for Windows 3.5 (Systat Software, San Jose, CA, USA) statistical software package was utilized to analyze results. The data are expressed as the mean ± SD of a given number of experiments. Statistical significance was determined using a one-way ANOVA with a Bonferroni post-hoc test or Student’s t-test. The results were considered to be statistically significant when p < 0.05. The IC50 values were calculated using CalcuSyn 2.0 software (Biosoft, Cambridge, UK). Cell cycle analysis was evaluated using MultiCycle AV Software (Phoenix Flow Systems, San Diego, CA, USA).

[3] = tested on: caspases 3/7; test: Caspase activity, luminescent kit, caspases 3/7; format: cell-based, human; conditions: for kaspáza (3) a 7, raw signal / kaspáza (3) a 7, signal / viabilita: individual experiments by date; for kaspáza (3) a 7, raw signal, průměry / kaspáza (3) a 7, % kontroly / kaspáza (3) a 7, signal / viabilita, průměry: mean; for kaspáza (3) a 7, % kontroly / kaspáza (3) a 7, signal / viabilita / kaspáza (3) a 7, signal / viabilita, průměry: normalised to viability
[4] = tested on: MCF-7 cells; test: Cellular 59Fe uptake from 59Fe2-transferrin; format: cell-based, human; design: key to Uptake 59Fe, Ave / Uptake 59Fe: % of internalized 59Fe in untreated control cells; conditions: Control Ave = 100
Method in brief: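 Confluent MCF-7 cells were incubated 3 h at 37°C with 0.75 μM ⁵⁹Fe₂-transferrin (500 pCi/pmol Fe) plus chelator at 25 μM. Membrane-bound ⁵⁹Fe was released with Pronase (1 mg/mL, 30 min, 4°C). Pronase-insensitive internalized ⁵⁹Fe was expressed as % of untreated control.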

CCNC(=O)NN=C(c1ccccc1)c1ccccn1 [E-Bp4eS, 2-benzoylpyridine 4-ethylsemicarbazone]
Therapeutic index, IC50 non-cancerous cells / IC50 neoplastic cells ([1]; 3T3/HL-60): >6.6
Therapeutic index, IC50 non-cancerous cells / IC50 neoplastic cells ([1]; H9c2/HL-60): 5.9
IC50 ([1]; HL-60, 72 h/37°C, mean ± SD, n ≥ 4): 151 ± 9.1 µM
MTT, relative to control (0 = 100) ([1]; HL-60, 10 000 b/j, 3 μM, průměr (mean), sheet E-Bp4eS): 97.96
MTT, relative to control (0 = 100) ([1]; HL-60, 10 000 b/j, 3 μM, single experiment (date), sheet E-Bp4eS): 100.761 and 104.358 and 95.5768 and 91.1569
MTT, relative to control (0 = 100) ([1]; HL-60, 10 000 b/j, 10 μM, průměr (mean), sheet E-Bp4eS): 99.97
MTT, relative to control (0 = 100) ([1]; HL-60, 10 000 b/j, 10 μM, single experiment (date), sheet E-Bp4eS): 101.567 and 98.1615 and 96.1949 and 103.964
MTT, relative to control (0 = 100) ([1]; HL-60, 10 000 b/j, 30 μM, průměr (mean), sheet E-Bp4eS): 95.62
MTT, relative to control (0 = 100) ([1]; HL-60, 10 000 b/j, 30 μM, single experiment (date), sheet E-Bp4eS): 99.0132 and 96.6154 and 90.9257 and 95.914
MTT, relative to control (0 = 100) ([1]; HL-60, 10 000 b/j, 100 μM, průměr (mean), sheet E-Bp4eS): 79.54
MTT, relative to control (0 = 100) ([1]; HL-60, 10 000 b/j, 100 μM, single experiment (date), sheet E-Bp4eS): 81.2266 and 75.7782 and 76.5508 and 84.6199
MTT, relative to control (0 = 100) ([1]; HL-60, 10 000 b/j, 120 μM, průměr (mean), sheet E-Bp4eS): 74.92
MTT, relative to control (0 = 100) ([1]; HL-60, 10 000 b/j, 120 μM, single experiment (date), sheet E-Bp4eS): 75.3051 and 80.9667 and 70.8568 and 72.5675
MTT, relative to control (0 = 100) ([1]; HL-60, 10 000 b/j, 140 μM, průměr (mean), sheet E-Bp4eS): 62.34
MTT, relative to control (0 = 100) ([1]; HL-60, 10 000 b/j, 140 μM, single experiment (date), sheet E-Bp4eS): 62.4842 and 69.381 and 45.4725 and 72.037
MTT, relative to control (0 = 100) ([1]; HL-60, 10 000 b/j, 150 μM, průměr (mean), sheet E-Bp4eS): 38.39
MTT, relative to control (0 = 100) ([1]; HL-60, 10 000 b/j, 300 μM, průměr (mean), sheet E-Bp4eS): 3.81
IC50 ([1]; HL-60, 10 000 b/j, single experiment (date), sheet E-Bp4eS): 159 µM and 144 µM and 141 µM
IC50 ([1]; Homo sapiens, HL-60, HL-60, 10 000 b/j, průměr (mean), sheet E-Bp4eS): 150 µM
IC50 ([1]; Homo sapiens, HL-60, HL-60, 10 000 b/j, single experiment (date), sheet E-Bp4eS): 158 µM
Percentage of cells in the G2/M phase [2]: slight, but significant (p < 0.01–0.05) decrease
kaspáza (3) a 7, raw signal ([3]; 3 hodiny): 2046.5 and 1555.5 and 1698 and 1596
kaspáza (3) a 7, raw signal, průměry ([3]; 3 hodiny): 1724
kaspáza (3) a 7, % kontroly ([3]; 3 hodiny): 106.30 % kontroly
kaspáza (3) a 7, signal / viabilita ([3]; 3 hodiny): 20.8429 and 15.8422 and 17.2935 and 16.2547
kaspáza (3) a 7, signal / viabilita, průměry ([3]; 3 hodiny): 17.5583
kaspáza (3) a 7, raw signal ([3]; 24 hodin): 2362.5 and 2475 and 2765.5 and 2572
kaspáza (3) a 7, raw signal, průměry ([3]; 24 hodin): 2543.75
kaspáza (3) a 7, % kontroly ([3]; 24 hodin): 112.45 % kontroly
kaspáza (3) a 7, signal / viabilita ([3]; 24 hodin): 23.7515 and 24.8825 and 27.8031 and 25.8577
kaspáza (3) a 7, signal / viabilita, průměry ([3]; 24 hodin): 25.5737
kaspáza (3) a 7, raw signal ([3]; 72 hodin): 7302.5 and 8023 and 7227 and 8569
kaspáza (3) a 7, raw signal, průměry ([3]; 72 hodin): 7780.38
kaspáza (3) a 7, % kontroly ([3]; 72 hodin): 107.49 % kontroly
kaspáza (3) a 7, signal / viabilita ([3]; 72 hodin): 74.6601 and 82.0264 and 73.8882 and 87.6086
kaspáza (3) a 7, signal / viabilita, průměry ([3]; 72 hodin): 79.5458
Uptake 59Fe, Ave ([4]; average of all replicates): 105.146
Uptake 59Fe ([4]; single replicate (three per date)): 102.106 and 110.477 and 102.867 and 98.5761 and 110.59 and 101.139 and 107.081 and 112.704 and 100.772
